Test results as given in article PMC6691587, “New CXCR1/CXCR2 inhibitors represent an effective treatment for kidney or head and neck cancers sensitive or refractory to reference treatments” (Theranostics, 2019).
Where two headings read alike, the source gives them in different places.

Tests used:
CAL27 = assay: XTT cell viability assay, CAL27 HNSCC cells; type: cell-based, human; conditions: XTT assay, 48 h, SD 10%, mean of three experiments, read-out: IC50 27 (HNSCC)
Protocol: (§1) Fifty microliters of sodium 3′-[1-phenylaminocarbonyl)-3,4-tetrazolium]-bis(4-methoxy-6-nitro) benzene sulfonic acid hydrate (XTT) reagent was added to each well. The assay is based on the cleavage of the yellow tetrazolium salt XTT to form an orange formazan dye by metabolically active cells. This bio-reduction occurs in viable cells only and is related to NAD(P)H production through glycolysis. Therefore, the amount of formazan dye measured at 490 nm directly correlated with the number of metabolically active cells reflecting cell proliferation and viability. Each assay was performed in quadruplicate.

CAL33 = assay: XTT cell viability assay, CAL33 HNSCC cells; type: cell-based, human; conditions: XTT assay, 48 h, SD 10%, mean of three experiments, read-out: IC50 33 (HNSCC)
Protocol: as §1

A498 = assay: XTT cell viability assay, A498 RCC cells; type: cell-based, human; conditions: XTT assay, 48 h, SD 10%, mean of three experiments, read-out: IC50 498 (Kidney RCC)
Protocol: as §1

RCC4 = assay: XTT cell viability assay, RCC4 RCC cells; type: cell-based, human; conditions: SD 10%, mean of three experiments, read-out: IC50 R4 (Kidney RCC)
Protocol: as §1

786-O = assay: XTT cell viability assay, 786-O RCC cells; type: cell-based, human; conditions: XTT assay, 48 h, SD 10%, mean of three experiments, read-out: IC50 786 (Kidney RCC)
Protocol: as §1

MDA-MD-231 = assay: XTT cell viability assay, breast cancer cells; type: cell-based, human; conditions: 48 h, SD 10%, mean of three experiments
Protocol: as §1

OCI-AML2 = assay: XTT cell viability assay, OCI-AML2 AML cells; type: cell-based, human; conditions: SD 10%, mean of three experiments, read-out: IC50 L2 (AML)
Protocol: as §1

OCI-AML3 = assay: XTT cell viability assay, OCI-AML3 AML cells; type: cell-based, human; conditions: SD 10%, mean of three experiments, read-out: IC50 L3 (AML)
Protocol: as §1

Molm13 = assay: XTT cell viability assay, Molm13 AML cells; type: cell-based, human; conditions: SD 10%, mean of three experiments
Protocol: as §1

Molm14 = assay: XTT cell viability assay, Molm14 AML cells; type: cell-based, human; conditions: SD 10%, mean of three experiments
Protocol: as §1

SKM1 = assay: XTT cell viability assay, SKM1 MDS cells; type: cell-based, human; conditions: SD 10%, mean of three experiments, read-out: IC50 SK (MDS)
Protocol: as §1

K562 = assay: XTT cell viability assay, K562 CML cells; type: cell-based, human; conditions: SD 10%, mean of three experiments
Protocol: as §1

[1] = test system: panel of human tumor cell lines; assay: XTT screening on a panel of tumor cell lines; type: cell-based; conditions: for IC50: Homo sapiens; for anti-proliferation/survival activity on malignant cells: in words
Protocol: as §1

HuVEC = assay: Boyden chamber migration assay; type: cell-based, human; conditions: CXCL7 50 ng/ml, 2.5 µmol/L compound
Protocol: CXCL7 or VEGFA-stimulated chemotaxis assays were monitored using modified Boyden chambers containing polycarbonate membranes (8-μm pores, Transwell; Corning, Sigma). Cells were seeded onto the upper side of the filters and chambers were placed on 24-well plates containing CXCL7 (50ng/ml) or VEGFA (50ng/ml). Cell migration was followed for 24 h at 37°C in 5% CO2. Migratory cells on the lower membrane surface were fixed in 3% paraformaldehyde, stained with 0.1% crystal violet.

786-O cells = assay: Ectopic model of RCC (786-O xenograft); type: in vivo, nude (nu/nu) female mice; conditions: C29 100 µg i.p. three per week; danirixin 200 µg three times a week; sunitinib 50 mg/kg oral gavage five times a week
Protocol: These studies were carried out in strict accordance with the recommendations in the Guide for the Care and Use of Laboratory Animals. Our experiments were approved by the ''Comité National Institutionnel d'Ethique pour l'Animal de Laboratoire'' (reference: PEA-255 and PEA-277). Cells were injected subcutaneously into the flank of 5-week-old nude (nu/nu) female mice (Janvier). When the tumor reached 100 mm^3, mice were treated. The tumor volume was determined with a caliper (v = L*l2*0.5).
2- Seven million 786-O cells were injected subcutaneously.

[2] = read-out: IC50 for solid tumors (breast and kidney)
[3] = read-out: IC50 values for several cancer cell lines

IC50 (786-O; Homo sapiens, 786-0) | IC50 (MDA-MD-231; Homo sapiens) | IC50 (OCI-AML2; Homo sapiens, OCI-AML2, 48 h) | IC50 (OCI-AML3; Homo sapiens, OCI-AML-3, 48 h) | IC50 (Molm13; Homo sapiens, MOLM-13, 48 h) | IC50 (Molm14; Homo sapiens, MOLM-14, 48 h) | IC50 (SKM1; Homo sapiens, SKM-1, 48 h) | IC50 (K562; Homo sapiens, K562, 48 h) | IC50 [1, 3] | SMILES | IC50 (CAL27; Homo sapiens, CAL-27) | IC50 (CAL33; Homo sapiens, CAL-33) | IC50 (A498; Homo sapiens, A498) | IC50 (RCC4; Homo sapiens, RCC4, 48 h) | also measured
15 µM | 15 µM | 20 µM | > 25 µM | > 25 µM | 20 µM | > 25 µM | 10 µM |  | O=C(Nc1cccc(Cl)c1)Nc1cccc(Cl)c1 [C9] | 12 µM | 10 µM | 10 µM | 15 µM | IC50 [1, 2]: 10 to 20 µM
15 µM | 12 µM | 15 µM | 25 µM | > 25 µM | 15 µM | > 25 µM | 25 µM |  | O=C(Nc1ccc(Cl)cc1)Nc1ccccc1O [C12] | 12 µM | 10 µM | 10 µM | 15 µM | IC50 [1, 2]: 10 to 20 µM
20 µM | 20 µM | 20 µM | 22 µM | > 25 µM | 20 µM | > 25 µM | 12 µM | < 20 µM | O=C(Nc1ccc(Cl)cc1)Nc1nc2ccccc2[nH]1 [C16] | 15 µM | 15 µM | 9 µM | 20 µM | 
> 25 µM | > 25 µM | > 25 µM | > 25 µM | > 25 µM | > 25 µM | > 25 µM | > 25 µM |  | O=C(Nc1ccccc1)Nc1nc2ccccc2o1 [C18] | > 25 µM | > 25 µM | > 25 µM | > 25 µM | anti-proliferation/survival activity on malignant cells [1]: did not give anti-proliferation/survival activity
> 25 µM | > 25 µM | > 25 µM | > 25 µM | > 25 µM | > 25 µM | > 25 µM | > 25 µM |  | S=C(Nc1ccccc1)Nc1nc2ccccc2o1 [C19] | > 25 µM | > 25 µM | > 25 µM | > 25 µM | anti-proliferation/survival activity on malignant cells [1]: did not give anti-proliferation/survival activity
15 µM | > 25 µM | > 25 µM | 10 µM | 15 µM | 10 µM | 25 µM | 25 µM | < 20 µM | Cc1ccc2nc(NC(=O)Nc3ccccc3Cl)sc2c1 [C25] | 5 µM | 10 µM | 15 µM | > 25 µM | 
5 µM | 8 µM | 10 µM | 10 µM | 5 µM | 10 µM | 10 µM | 7 µM | < 20 µM | O=C(Nc1nc2ccc([N+](=O)[O-])cc2s1)Nc1ccccc1Cl [C28] | 7 µM | 5 µM | 5 µM | 7 µM | 
15 µM | 12 µM | 15 µM | 7 µM | 15 µM | 10 µM | 15 µM | 4 µM | < 20 µM | CCOc1ccc2nc(NC(=O)Nc3ccccc3C)sc2c1 [C30] | 5 µM | 15 µM | 15 µM | > 25 µM | 
> 25 µM | > 25 µM | > 25 µM | > 25 µM | > 25 µM | 25 µM | > 25 µM | > 25 µM |  | CCOc1ccc2nc(NC(=O)Nc3ccc(OC)cc3)sc2c1 [C33] | > 25 µM | > 25 µM | > 25 µM | > 25 µM | 
 |  |  |  |  |  |  |  |  | O=C(Nc1ccc([N+](=O)[O-])cc1O)Nc1ccccc1Br [SB225002, reference compound] |  |  |  |  | IC50 (CAL27): 100 µM; IC50 (CAL33): 80 µM; IC50 (A498): 70 µM; IC50 (RCC4; 48 h): 100 µM; IC50 (786-O): 100 µM; IC50 (MDA-MD-231): 100 µM; IC50 (OCI-AML2; 48 h): > 100 µM; IC50 (OCI-AML3; 48 h): 90 µM; IC50 (Molm13; 48 h, read-out: IC50 13 (AML)): > 100 µM; IC50 (Molm14; 48 h, read-out: IC50 14 (AML)): 90 µM; IC50 (SKM1; 48 h): > 100 µM; IC50 (K562; 48 h): > 100 µM; effect on RCC and HNSCC cells ([1]; 786, 786R, CAL27, CAL27R (Figure S7), compared to C29): modest effect
 |  |  |  |  |  |  |  |  | Cc1c(F)cccc1NC(=O)Nc1ccc(Cl)c(S(=O)(=O)[C@H]2CCCNC2)c1O [danirixin, reference compound] |  |  |  |  | CXCL7-dependent migration of HuVECs (HuVEC): no effect; efficacy on tumor growth, 786-O xenograft (786-O cells): equivalent efficacy
 |  |  |  |  |  |  |  |  | CCN(CC)CCNC(=O)c1c(C)[nH]c(/C=C2\C(=O)Nc3ccc(F)cc32)c1C [sunitinib] |  |  |  |  | efficacy on tumor growth, 786-O xenograft (786-O cells): equivalent efficacy
